For the test, the system named is BDF1 mice, B16 melanoma ip, median survival T/C. The test can be described thus: NCI In Vivo Anticancer Drug Screen. Data for tumor model B16 Melanoma (intraperitoneal) in B6D2F1 (BDF1) mice. To be noted: endpoint: median survival time, higher = longer survival. A digest of the protocol: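 Values are ratios of treated (T) to vehicle-control (C) measurements of survival or tumor size in tumor-bearing mice.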

Setting [1] is: dose: 18.0 mg/kg/injection, schedule: Q01DX009 (ip), vehicle: saline with Tween-80.
Where [2] appears, read: dose: 25.0 mg/kg/injection, schedule: Q01DX009 (ip), vehicle: Klucel (hydroxypropylcellulose) (HPC).
Where [3] appears, read: dose: 25.0 mg/kg/injection, schedule: Q01DX009 (ip), vehicle: saline with Tween-80.
The mark [4] stands for this setting: dose: 50.0 mg/kg/injection, schedule: Q01DX009 (ip), vehicle: Klucel (hydroxypropylcellulose) (HPC).
Setting [5] is: dose: 50.0 mg/kg/injection, schedule: Q01DX009 (ip), vehicle: saline with Tween-80.
Setting [6] is: dose: 100.0 mg/kg/injection, schedule: Q01DX009 (ip), vehicle: Klucel (hydroxypropylcellulose) (HPC).
[7] abbreviates: dose: 3.12 mg/kg/injection, schedule: Q01DX009 (ip), vehicle: saline.
Setting [8] is: dose: 6.25 mg/kg/injection, schedule: Q01DX009 (ip), vehicle: saline.
The mark [9] stands for this setting: dose: 12.5 mg/kg/injection, schedule: Q01DX009 (ip), vehicle: saline.
The mark [10] stands for this setting: dose: 25.0 mg/kg/injection, schedule: Q01DX009 (ip), vehicle: saline.
Setting [11] is: dose: 200.0 mg/kg/injection, schedule: Q01DX009 (ip), vehicle: saline.
[12] abbreviates: dose: 12.5 mg/kg/injection, schedule: Q01DX009 (ip), vehicle: Klucel (hydroxypropylcellulose) (HPC).
The mark [13] stands for this setting: dose: 400.0 mg/kg/injection, schedule: Q01DX009 (ip), vehicle: Klucel (hydroxypropylcellulose) (HPC).
The mark [14] stands for this setting: dose: 3.13 mg/kg/injection, schedule: Q01DX009 (ip), vehicle: saline with Tween-80.
[15] abbreviates: dose: 6.25 mg/kg/injection, schedule: Q01DX009 (ip), vehicle: saline with Tween-80.
[16] abbreviates: dose: 12.5 mg/kg/injection, schedule: Q01DX009 (ip), vehicle: saline with Tween-80.
[17] abbreviates: dose: 200.0 mg/kg/injection, schedule: Q01DX009 (ip), vehicle: saline with Tween-80.
[18] abbreviates: dose: 100.0 mg/kg/injection, schedule: Q01DX009 (ip), vehicle: saline with Tween-80.

“And” between values parts separate entries of the source, which are not always exact repeats. Equal values may be shown once. Inconclusive results and toxic doses are left out. Numbered stars: 1 amine (or outer) side, 2 acyl side, 3 side chain; on linkers, the order of the positions; unused ones are H or OH. Bridge positions count the residues as written; N and C are the ends. Square brackets hold non-standard residues; d marks the D form. Peptide text beside a SMILES is read from it. I, II: the chains in the order shown. Actinocin(9to1) = Cc1c2oc3c(C)ccc(C(=O)[*:1])c3nc-2c(C(=O)[*:2])c(N)c1=O; NMeV = CN[CH](C(=O)O)C(C)C; Pip = O=C(O)[CH]1CCCCN1; Sar = CNCC(=O)O

Consider `COc1ccc(N2CSC(=S)N(c3ccc(OC)cc3)C2)cc1`, for which the T/C was 97 % of control (dose: 8.0 mg/kg/injection, schedule: Q01DX009 (ip), vehicle: saline with Tween-80); 90 % of control (dose: 12.0 mg/kg/injection, schedule: Q01DX009 (ip), vehicle: saline with Tween-80); 90 % of control under setting [1]; 102 % of control under setting [2]; 112 % of control under setting [3]; 94 % of control under setting [4]. Also, the T/C is, setting by setting: under setting [5], 115 % of control; under setting [6], 114 % of control.
For the compound `CCCC(C(=O)OCCN(CC)CC)(c1ccccc1)c1ccccc1`, the T/C under setting [7] is 95 % of control, the T/C under setting [8] is 102 % of control, the T/C under setting [9] is 100 % of control and the T/C under setting [10] is 97 % of control.
In the case of `Cc1ccc(Nc2c3ccccc3nc3ccccc23)cc1`, the T/C under setting [1] is 123 % of control; the T/C (dose: 18.0 mg/kg/injection, schedule: Q04DX003 (ip), vehicle: saline with Tween-80) was 105 % of control; the T/C (dose: 37.5 mg/kg/injection, schedule: Q04DX003 (ip), vehicle: saline with Tween-80) is 110 % of control; the T/C (dose: 75.0 mg/kg/injection, schedule: Q04DX003 (ip), vehicle: saline with Tween-80) is 105 % of control.
Consider `CCCC(Cc1ccccc1)N1CCCC1` (stereo not given), for which the T/C runs as follows: (dose: 1.56 mg/kg/injection, schedule: Q01DX009 (ip), vehicle: saline) 105 % of control; under setting [7], 100 % of control; under setting [8], 92 % of control; under setting [9], 115 % of control; under setting [10], 102 % of control.
Take `COc1ccc(NC(=O)Nc2ccc(OC)cc2)cc1`: the T/C under setting [11] was 120 % of control and the T/C (dose: 400.0 mg/kg/injection, schedule: Q01DX009 (ip), vehicle: saline) is 116 % of control.
As for `CCCCCCCCCc1ccc(OC(=O)CCC)cc1`, the T/C is, setting by setting: under setting [12], 106 % of control; under setting [2], 94 % of control; under setting [13], 87 % of control.
As for `Cc1cc(C)c(NC(=O)c2cccc(C(=O)Nc3c(C)cc(C)cc3C)c2)c(C)c1`, the T/C under setting [6] was 93 % of control; the T/C (dose: 200.0 mg/kg/injection, schedule: Q01DX009 (ip), vehicle: Klucel (hydroxypropylcellulose) (HPC)) is 86 % of control; the T/C under setting [13] is 90 % of control.
For the compound `NC1=CC(=O)c2ccccc2C1=O`, the T/C is, setting by setting: under setting [12], 96 % of control; under setting [2], 99 % of control; under setting [4], 101 % of control.
With `NC(Cc1ccc(O)cc1)C(=O)N/N=C/c1ccc(N(CCCl)CCCl)cc1` (stereo not given), the T/C is 115 % of control (dose: 15.0 mg/kg/injection, schedule: Q01DX009 (ip), vehicle: Klucel (hydroxypropylcellulose) (HPC)) and 120 % of control (dose: 30.0 mg/kg/injection, schedule: Q01DX009 (ip), vehicle: Klucel (hydroxypropylcellulose) (HPC)).
Regarding `CC(=O)OCC1OC([Se][As](C)C)C(OC(C)=O)C(OC(C)=O)C1OC(C)=O` (stereo not given), the T/C is 88 % of control under setting [14], 100 % of control under setting [15] and 90 % of control under setting [16].
Turning to `CC(C)C(Br)C(=O)NCC(=O)NCC(=O)O` (stereo not given), the T/C under setting [17] is 91 % of control and the T/C (dose: 400.0 mg/kg/injection, schedule: Q01DX009 (ip), vehicle: saline with Tween-80) is 87 % of control.
For `Cc1cccc(NC(=O)Nc2cccc(Cl)c2)c1C`, the T/C was 107 % of control (dose: 100.0 mg/kg/injection, schedule: Q04DX003 (ip), vehicle: Klucel (hydroxypropylcellulose) (HPC)); 100 % of control (dose: 200.0 mg/kg/injection, schedule: Q04DX003 (ip), vehicle: Klucel (hydroxypropylcellulose) (HPC)); 103 % of control (dose: 400.0 mg/kg/injection, schedule: Q04DX003 (ip), vehicle: Klucel (hydroxypropylcellulose) (HPC)).
With `COCCOC1=C(N2CC2)C(=O)C(OCCOC)=C(N2CC2)C1=O`, the T/C by setting is: (dose: 0.5 mg/kg/injection, schedule: Q01DX009 (ip), vehicle: saline) 102 % of control and 123 % of control; (dose: 1.0 mg/kg/injection, schedule: Q01DX009 (ip), vehicle: saline) 110 % of control; (dose: 2.0 mg/kg/injection, schedule: Q01DX009 (ip), vehicle: saline) 94 % of control; (dose: 4.0 mg/kg/injection, schedule: Q01DX009 (ip), vehicle: saline) 150 % of control.
Regarding `Cc1cc(N(C)C)cc(C)c1N=Nc1cc[n+]([O-])cc1`, the T/C was 98 % of control under setting [14]; 100 % of control under setting [15]; 105 % of control under setting [16]; 108 % of control under setting [3]; 95 % of control and 113 % of control under setting [5].
As for `c1ccc(C[P+](c2ccccc2)(c2ccccc2)c2ccccc2)cc1`, the T/C was 92 % of control (dose: 2.5 mg/kg/injection, schedule: Q01DX009 (ip), vehicle: other); 94 % of control (dose: 5.0 mg/kg/injection, schedule: Q01DX009 (ip), vehicle: other); 94 % of control (dose: 10.0 mg/kg/injection, schedule: Q01DX009 (ip), vehicle: other); 89 % of control (dose: 20.0 mg/kg/injection, schedule: Q01DX009 (ip), vehicle: other).
With `CCC(C)C(NC(=O)OC(C)(C)c1ccc(-c2ccccc2)cc1)C(=O)O` (stereo not given), the T/C was 94 % of control under setting [5], 94 % of control under setting [18] and 91 % of control under setting [17].
As for `Cc1c2oc3c(C)ccc(C(=O)NC4C(=O)NC(C(C)C)C(=O)N5CCCCC5C(=O)N(C)CC(=O)N(C)C(C(C)C)C(=O)OC4C)c3nc-2c(C(=O)NC2C(=O)NC(C(C)C)C(=O)N3CCCCC3C(=O)N(C)CC(=O)N(C)C(C(C)C)C(=O)OC2C)c(N)c1=O` (stereo not given) (I: TV[Pip][Sar][NMeV] / II: TV[Pip][Sar][NMeV]; ester I:1-I:C, II:1-II:C; linker I:N-II:N via Actinocin(9to1); configuration not given here), the T/C (dose: 0.25 mg/kg/injection, schedule: Q01DX009 (ip), vehicle: saline + alcohol) was 120 % of control; the T/C (dose: 0.5 mg/kg/injection, schedule: Q01DX009 (ip), vehicle: saline + alcohol) is 123 % of control; the T/C (dose: 0.75 mg/kg/injection, schedule: Q04DX003 (ip), vehicle: saline + alcohol) is 99 % of control and 116 % of control; the T/C (dose: 1.5 mg/kg/injection, schedule: Q04DX003 (ip), vehicle: saline + alcohol) is 111 % of control and 116 % of control; the T/C (dose: 2.0 mg/kg/injection, schedule: Q01DX009 (ip), vehicle: saline + alcohol) is 157 % of control; the T/C (dose: 6.0 mg/kg/injection, schedule: Q04DX003 (ip), vehicle: saline + alcohol) is 155 % of control.
Take `C(COCCOCC1CO1)OCCOCC1CO1` (stereo not given): the T/C was 101 % of control under setting [16]; 105 % of control under setting [3]; 103 % of control under setting [5]; 107 % of control (dose: 50.0 mg/kg/injection, schedule: Q01DX009 (ip), vehicle: saline); 109 % of control under setting [18]; 108 % of control and 110 % of control (dose: 100.0 mg/kg/injection, schedule: Q01DX009 (ip), vehicle: saline). Besides, the T/C is, setting by setting: under setting [17], 99 % of control; under setting [11], 86 % of control.
Turning to `C/C(Cc1ccccc1)=N\[N+](C)(C)C`, the T/C is 109 % of control (dose: 75.0 mg/kg/injection, schedule: Q04DX003 (ip), vehicle: saline) and 104 % of control (dose: 150.0 mg/kg/injection, schedule: Q04DX003 (ip), vehicle: saline).
With `CC(=O)OC(C)C1C2=C(C(=O)CC1(C)O)C(=O)c1c(ccc(-c3ccc4c(c3O)C(=O)C3=C(C4=O)C(C(C)OC(C)=O)C(C)(O)CC3=O)c1O)C2=O` (stereo not given), the T/C reads like this: (dose: 1.56 mg/kg/injection, schedule: Q01DX009 (ip), vehicle: saline with Tween-80) 110 % of control; under setting [14], 117 % of control; under setting [15], 110 % of control.
`O=c1[nH]cnc2ccc(Cl)cc12`: the T/C by setting is: (dose: 37.5 mg/kg/injection, schedule: Q01DX009 (ip), vehicle: saline with Tween-80) 102 % of control; (dose: 75.0 mg/kg/injection, schedule: Q01DX009 (ip), vehicle: saline with Tween-80) 102 % of control.
For the compound `COc1ccc(C(=O)C(C)C(O)C(=O)O)c(O)c1C` (stereo not given), the T/C (dose: 100.0 mg/kg/injection, schedule: Q01DX009 (ip), vehicle: other) is 93 % of control.

Values taken from PubChem BioAssay AID192 (DTP/NCI, 2004).
